Reference: patent US11524966B1 (Valo Early Discovery, Inc., priority 2017, dated 2022)

These compounds were tested against T1, USP25 (USP25-His6, Boston Biochem E-546) (Homo sapiens, UniProt Q9UHP3) (assay: Ubiquitin-Rhodamine 110 Assay for USP25 Activity, Example A-2). Conditions: Ub-Rh110 assay, Example A-2; read-out: USP25 A-2 IC50 range.
T1 construct: His6; purchased Boston Biochem E-546
T1 sequence (Q9UHP3 1-1055): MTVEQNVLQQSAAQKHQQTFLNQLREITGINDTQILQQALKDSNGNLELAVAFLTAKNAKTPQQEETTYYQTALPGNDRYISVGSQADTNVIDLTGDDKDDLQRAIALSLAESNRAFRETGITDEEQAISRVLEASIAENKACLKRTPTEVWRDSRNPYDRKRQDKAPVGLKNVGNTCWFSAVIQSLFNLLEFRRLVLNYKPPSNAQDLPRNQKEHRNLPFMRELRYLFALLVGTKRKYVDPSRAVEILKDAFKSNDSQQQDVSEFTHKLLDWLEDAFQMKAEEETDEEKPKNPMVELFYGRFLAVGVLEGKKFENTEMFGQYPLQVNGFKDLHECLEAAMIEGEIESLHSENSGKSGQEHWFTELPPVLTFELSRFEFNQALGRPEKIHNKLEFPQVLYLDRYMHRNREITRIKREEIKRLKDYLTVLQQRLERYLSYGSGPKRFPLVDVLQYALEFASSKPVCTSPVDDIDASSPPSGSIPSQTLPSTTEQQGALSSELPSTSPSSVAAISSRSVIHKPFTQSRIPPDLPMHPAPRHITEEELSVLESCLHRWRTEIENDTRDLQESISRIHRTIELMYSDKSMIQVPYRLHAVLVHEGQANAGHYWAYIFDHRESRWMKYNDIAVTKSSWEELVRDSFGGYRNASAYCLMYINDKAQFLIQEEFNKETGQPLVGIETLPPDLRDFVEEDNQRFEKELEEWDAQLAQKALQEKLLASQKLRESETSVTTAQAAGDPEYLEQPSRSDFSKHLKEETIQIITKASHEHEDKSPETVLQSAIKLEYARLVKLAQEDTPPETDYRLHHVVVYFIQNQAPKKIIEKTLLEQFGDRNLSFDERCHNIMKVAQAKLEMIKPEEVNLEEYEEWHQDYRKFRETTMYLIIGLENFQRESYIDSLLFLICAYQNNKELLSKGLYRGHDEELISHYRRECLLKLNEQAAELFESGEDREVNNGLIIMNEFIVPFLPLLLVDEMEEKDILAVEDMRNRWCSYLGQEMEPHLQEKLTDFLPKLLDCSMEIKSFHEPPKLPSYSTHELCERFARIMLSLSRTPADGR
Format: biochemical
How it was run: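 Cleavage of ubiquitin-rhodamine 110 (25 nM, well below Km) by His-tagged USP25 at 75 pM is measured fluorimetrically after 45 min at room temperature and acid quench. Inhibitors are preincubated with enzyme for 30 minutes. IC50 values come from four-parameter logistic curve fitting.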

For Cc1ccc2c(N)c(C(=O)N[C@H]3COc4cc(N5CCN[C@@H](C)[C@H]5C)ccc4C3)sc2n1 (single isomer, unassigned) [Example 1-7], the IC50 was 1 to 50 nM.

Same assay, conditions: Ubiquitin-Rhodamine 110 assay, format Example A-2; read-out: USP25 A-2 IC50 range

First: Cc1nc2sc(C(=O)N[C@H]3CCc4cc(N5CCNCC5)ccc4C3)c(N)c2s1 (single isomer, unassigned) [Example 11-33]
Second: Cc1nc2sc(C(=O)N[C@@H]3CCc4cc(N5CC6CCC(C5)N6)ccc4C3)c(N)c2s1 (single isomer, unassigned) [Example 12-2]
The IC50 of the first is higher: greater than 2000 nM for the first, 200 to 2000 nM for the second. The second is the more potent here.

Compared with Cc1ccc2c(N)c(C(=O)N[C@@H]3CCc4cc(N5CC6CCC(C5)N6)c(C#N)cc4C3)sc2n1 (single isomer, unassigned) [Example 14-3], Cc1ccc2c(N)c(C(=O)N[C@H]3CCc4cc(N5CC6CCC(C5)N6)c(C#N)cc4C3)sc2n1 (single isomer, unassigned) [Example 14-4] is lower in IC50: greater than 2000 nM for the first, 50 to 200 nM for the second.

First: Cc1ccc2c(N)c(C(=O)N[C@H]3CCc4c(ccc(N5CC6CCC(C5)N6)c4C#N)C3)sc2n1 (single isomer, unassigned) [Example 14-2]
Second: Cc1ccc2c(N)c(C(=O)N[C@@H]3CCc4c(ccc(N5CC6CCC(C5)N6)c4C#N)C3)sc2n1 (single isomer, unassigned) [Example 14-1]
The IC50 of the first is higher: greater than 2000 nM for the first, 50 to 200 nM for the second. The second is the more potent here.

First: Cc1cnc2c(N)c(C(=O)N[C@H]3CCc4cc(N5CC6CCC(C5)N6)c(C#N)cc4C3)sc2n1 (single isomer, unassigned) [Example 14-8]
Second: Cc1cnc2c(N)c(C(=O)N[C@@H]3CCc4cc(N5CC6CCC(C5)N6)c(C#N)cc4C3)sc2n1 (single isomer, unassigned) [Example 14-7]
The IC50 of the first is lower: 50 to 200 nM for the first, greater than 2000 nM for the second. The first is the more potent here.

First: Cc1cnc2c(N)c(C(=O)N[C@H]3CCc4c(ccc(N5CC6CCC(C5)N6)c4C#N)C3)sc2n1 (single isomer, unassigned) [Example 14-6]
Second: Cc1cnc2c(N)c(C(=O)N[C@@H]3CCc4c(ccc(N5CC6CCC(C5)N6)c4C#N)C3)sc2n1 (single isomer, unassigned) [Example 14-5]
The IC50 of the first is higher: greater than 2000 nM for the first, 50 to 200 nM for the second. The second is the more potent here.
